Test results as given in patent US10899764B2, “Imidazo isoindole derivative, preparation method therefor and medical use thereof” (Jiangsu Hengrui Medicine Co., Ltd., priority 2015, dated 2021).
Counter-ions that a name gives are not always drawn. Like-named read-outs stand apart in the source and are kept apart here.

Experiments:
human TDO = human TDO (Homo sapiens (Human), UniProt P48775); test: Inhibition activity on human TDO (tryptophan 2,3-dioxygenase) (enzyme assay, absorbance at 480 nm); format: biochemical; settings: read-out: IC50 for inhibiting the activity of human TDO
Method: Assay for Determining the Inhibition activity of the Compounds of the Present Invention on Human TDO (tryptophan 2,3-dioxygenase)
Human TDO activity was tested in vitro by the following method.
This method is used to determine the inhibition effect of the compounds of the present invention on the activity of human TDO.
Plasmids constructed with the human TDO gene were transferred to competent Escherichia coli Rosseta. The TDO gene was scaled-up by culturing in liquid LB (Luria-Bertani) medium [which was prepared per liter according to “Molecular Cloning A Laboratory Manual” (J. Sambrook, D. W. Russell)]). The bacteria were collected and lysed by ultrasonic waves. The purified TDO was obtained by eluting from a column.
For testing, 24 μL of enzyme (TDO) was diluted 100 times with 50 mM KPB to 2400 μL. The concentration of the enzyme solution was 2.6 ng/μL. A 96 well reaction plate (AXYGEN, PCR-96-FLT-C) (hereinafter referred to as the “reaction plate”) was added with the enzyme solution at 24 μL/well. The blank well was added with 24 μL of KPB [Preparation of KPB buffer (50 mM): 6.805 g of KH2PO4 was weighed using an analytical balance, and placed into a 1000 mL beaker, deionized water was added with a measuring cylinder to 900 mL, the pH was adjusted to 6.5 by 1M KOH, then the mixture was introduced into a 1 L measuring cylinder, and water was added to 1 L. It was stored at 4° C.]. Then, 1 μL of a compound or DMSO was added into the corresponding wells in the reaction plate. Preparation of solution A: 200 μL of 500 mM L-sodium ascorbate was added with 1050 μL of KPB, then the mixture was mixed uniformly for 3 seconds at the maximum speed in a turbine mixer. Solution B: 100 μL of 10 mM tryptophan was added with 100 μL of 100,000 unit/ml catalase, 5 μL of 10 mM methylene blue, and 1050 μL of KPB successively, then the mixture was mixed uniformly for 3 seconds at the maximum speed in a turbine mixer. Then, 1200 μL of solution A and 1200 μL of solution B were taken and mixed uniformly for 3 seconds at the maximum speed in a turbine mixer. The mixture was added to the reaction plate at 24 μL/well. The reaction plate was placed in a plate centrifuge and centrifuged for 15 seconds at the maximum speed, so that the reaction liquids converged to the bottom. The reaction mixture was mixed uniformly for 30 seconds on a shaker, and incubated for 1 hour at 37° C. in a constant temperature incubator. In the reaction plate, 30% (W/V) trichloroacetic acid was added at 10 μL/well, then the mixture was incubated for 15 minutes at 65° C. in a incubator. The reaction plate was centrifuged in a centrifuge for 5 minutes at 4700 RPM at room temperature. […] Then, 2% (W/V) 4-(dimethylamino)benzaldehyde/glacial acetic acid solution was added at 40 μL/well, then the mixture was mixed uniformly for 1 minute on a shaker at the maximum speed. After incubation for 2 minutes at room temperature, the absorbance at 480 nm was read on a Synergy HT Reader.
The inhibition activity of the compounds of the present invention on human TDO was tested by the assay described above.

IDO in HeLa cells = IDO in HeLa cells (Homo sapiens (Human), UniProt P14902); test: Inhibition activity on IDO in HeLa cells (INF-γ induced); format: cell-based; settings: HeLa cells, INF-γ and tryptophan, 48 hours; read-out: IC50 for inhibiting the activity of IDO in HeLa cells
Method: Assay for Determining the Inhibition Activity of the Present Compounds on IDO in HeLa Cells
IDO activity in HeLa cells was tested in vitro by the following method.
This method is used to determine the inhibition effect of the compounds of the present invention on the activity of IDO in HeLa cells. (Note: indoleamine 2,3-dioxygenase (IDO) is expressed in the HeLa cell line and induced by interferon gamma (INF-γ)).
The supernatant was removed, serum-free DMEM high glucose medium was added at 90 μL/well, then the compounds contained in the culture medium with INF-γ and tryptophan were added at 10 μL/well (the final concentrations: 10000, 1000, 100, 10, 1, 0.1 nM). […] Then, 80 μL of the supernate was transferred from the 96-well cell culture plate to a 96 well round-bottomed plate, then 30% (W/V) trichloroacetic acid was added at 16 μL/well, then the mixture was incubated for 25 minutes at 65° C. in an incubator. The reaction plate was centrifuged in a centrifuge for 5 minutes at 4700 RPM. Then, 50 μL of the supernatant was transferred from the reaction plate to a 96-well flat-bottomed transparent plate by a multi-channel pipette. Then, 2% (W/V) 4-(dimethylamino)benzaldehyde/glacial acetic acid solution was added at 50 μL/well, then the mixture was mixed uniformly for 1 minute on a shaker. After incubation for 2 minutes at room temperature, the absorbance at 480 nm was read on a Synergy HT Reader.
The inhibition activity of the compounds of the present invention on IDO in HeLa cells was tested by the assay described above.

Sequence of human TDO (P48775 whole entry): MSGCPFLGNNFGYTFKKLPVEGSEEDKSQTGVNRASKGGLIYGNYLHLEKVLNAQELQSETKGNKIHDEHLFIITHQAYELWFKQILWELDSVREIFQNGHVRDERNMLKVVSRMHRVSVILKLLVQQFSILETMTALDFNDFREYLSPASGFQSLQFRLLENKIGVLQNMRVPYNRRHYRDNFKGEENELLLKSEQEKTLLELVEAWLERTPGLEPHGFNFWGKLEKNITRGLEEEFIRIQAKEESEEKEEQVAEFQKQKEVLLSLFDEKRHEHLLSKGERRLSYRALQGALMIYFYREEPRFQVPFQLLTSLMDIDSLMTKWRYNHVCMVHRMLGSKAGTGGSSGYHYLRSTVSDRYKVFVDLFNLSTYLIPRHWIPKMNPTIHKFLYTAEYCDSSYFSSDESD
Sequence of IDO in HeLa cells (P14902 whole entry): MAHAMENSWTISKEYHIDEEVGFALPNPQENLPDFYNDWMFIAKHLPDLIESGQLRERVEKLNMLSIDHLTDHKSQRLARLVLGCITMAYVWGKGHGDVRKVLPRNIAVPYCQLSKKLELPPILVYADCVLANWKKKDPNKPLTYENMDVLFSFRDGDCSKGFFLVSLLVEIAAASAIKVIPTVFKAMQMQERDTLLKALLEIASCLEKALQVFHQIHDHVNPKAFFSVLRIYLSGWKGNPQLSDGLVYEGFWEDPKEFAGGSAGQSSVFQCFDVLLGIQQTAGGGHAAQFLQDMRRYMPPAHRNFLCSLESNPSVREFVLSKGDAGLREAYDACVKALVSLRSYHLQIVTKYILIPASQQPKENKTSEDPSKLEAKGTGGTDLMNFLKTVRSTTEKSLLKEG

IC50 (human TDO; purified recombinant human TDO, 1 hour at 37° C.)	Structure (SMILES)	IC50 (human TDO)	IC50 (IDO in HeLa cells)
	Fc1cccc(N2CCC(C3c4c(F)cccc4-c4cncn43)CC2)c1 (stereo not shown) [Example 3, 6-fluoro-5-(1-(3-fluorophenyl)piperidin-4-yl)-5H-imidazo[5,1-a]isoindole trifluoroacetate]	371 nM	167 nM
42 nM	OCCn1cc(-c2ccc(N3CCC([C@H]4c5c(F)cccc5-c5cncn54)CC3)cc2)cn1 [Example 41, (S)-2-(4-(4-(4-(6-fluoro-5H-imidazo[5,1-a]isoindol-5-yl)piperidin-1-yl)phenyl)-1H-pyrazol-1-yl)ethanol]		47.7 nM
